# From paper PMC11134331, “Cell-active small molecule inhibitors validate the SNM1A DNA repair nuclease as a cancer target” (Chemical Science, 2024)
# Key:
# solubility = format: physicochemical
# SNM1A [1] = biological target: T1, SNM1A (Homo sapiens, UniProt Q6PJP8); test: real-time fluorescence-based nuclease assay, SNM1A; format: biochemical; parameters: DNA encoding for the MBL and β-CASP domains of SNM1A (aa 676–1040) was cloned into the baculovirus transfer vector pFB-LIC-Bse; inferred from vector pFB-LIC-Bse and the IMAC purification; made in house; host or cells: Sf9 insect cells (baculovirus); conditions: for IC50: read-out: SNM1A IC50
# T1 sequence (Q6PJP8 676-1040): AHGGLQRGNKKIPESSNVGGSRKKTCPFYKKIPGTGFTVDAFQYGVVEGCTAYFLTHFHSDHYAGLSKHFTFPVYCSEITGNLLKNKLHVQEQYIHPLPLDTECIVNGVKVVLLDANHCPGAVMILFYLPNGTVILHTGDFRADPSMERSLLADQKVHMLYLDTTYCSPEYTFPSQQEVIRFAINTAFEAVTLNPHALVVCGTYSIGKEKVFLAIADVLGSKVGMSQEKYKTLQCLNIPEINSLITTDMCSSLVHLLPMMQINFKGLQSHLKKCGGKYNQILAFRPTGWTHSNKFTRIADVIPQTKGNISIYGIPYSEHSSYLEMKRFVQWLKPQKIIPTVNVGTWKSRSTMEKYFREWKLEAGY
# Procedure: In brief, the fluorescence-based nuclease assay utilises a chemically modified 20-nucleotide ssDNA substrate with a fluorescein isothiocyanate (FITC) derived 5′-group and an internal black-hole-quencher-1 (BHQ-1), located eight nucleotides distal to the fluorescein group. In the intact substrate the BHQ-1 suppresses fluorescence, however, exonucleolytic digestion of the substrate from the 5′ end by SNM1A uncouples the BHQ-1 and FITC moieties (see Fig. 1D). Spectra were measured every 140 seconds with an increase in fluorescence indicating enzymatic activity by SNM1A (concentration: 0.1 nM).
# (§1) Fluorescence-based nuclease digestion SNM1A–C assays were performed as described.[30,45] In the case of SNM1A and SNM1B, a 20-mer oligonucleotide with a 5′ FITC-conjugated-T and an internal BHQ-1 (black hole quencher) conjugated-T, eight nucleotides distal (3′) to the fluor was utilised; whereas for SNM1C a 20-mer oligonucleotide with a 5′ FITC-conjugated-T and a 3′ BHQ-1(black hole quencher) was used to capture all possible endonucleolytic incisions. Reactions (25 μL) were performed in 384 well microplates in nuclease buffer (20 mM HEPES-KOH pH 7.5, 50 mM KCl, 10 mM MgCl2, 0.5 mM TCEP, 0.05% (v/v) Triton-X, 0.1 mg mL^−1 BSA, 5% (v/v) glycerol) with SNM1A/B/C (0.1 nM SNM1A, 0.5 nM SNM1B and 1 nM SNM1C) as indicated. Proteins were incubated for 10 min at RT with the stated compound where applicable, before the reaction was initiated with the addition of 10 nM DNA substrate. […] Fluorescence spectra were measured every 140 s, for 35 min, at 37 °C. The fluorescence intensity of each well was plotted against compound concentration and fitted using a log (inhibitor) response curve using GraphPad Prism software (GraphPad Software, Inc., La Jolla, CA, USA).
# SNM1A [2] = biological target: T1, SNM1A; test: gel-based nuclease assay, SNM1A; format: biochemical; parameters: DNA encoding for the MBL and β-CASP domains of SNM1A (aa 676–1040) was cloned into the baculovirus transfer vector pFB-LIC-Bse; inferred from vector pFB-LIC-Bse and the IMAC purification; made in house; host or cells: Sf9 insect cells (baculovirus); conditions: 0.5 nM SNM1A
# Excerpt: (§2) To validate the inhibition of SNM1A, SNM1B, and SNM1C observed in the fluorescence-based screening assays, we then performed gel-based assays using 3′ terminally-labelled oligonucleotide substrates that enable both quantitative and qualitative (visual) assessment of the pattern of inhibition, for a subset of compounds. Importantly, whereas the fluorescence-based assay measures a single hydrolytic event at the substrate terminus, the gel-based nuclease assay informs on the pattern of digestion of the entire 51-mer substrate DNA over time.
# (§3) Standard exonuclease assays were carried out in a 10 μL final volume containing 20 mM HEPES-KOH, pH 7.5, 50 mM KCl, 0.5 mM TCEP, 10 mM MgCl2, 0.05% (v/v) Triton X-100, 5% (v/v) glycerol, and SNM1 proteins as indicated. Inhibitors were dissolved in DMSO and diluted immediately prior to the reaction in the above buffer. Inhibitors were serially diluted two-fold from 100 μM. The DMSO concentration was kept constant at 0.1% (v/v) in the final reaction mixture. Inhibitors were incubated with the indicated SNM1 enzyme for 10 minutes at room temperature; reactions were initiated by addition of 10 nM DNA substrate and incubated at 37 °C for 20 min. Reactions were quenched by addition of 5 μL stop solution (95% formamide, 10 mM EDTA, 0.25% (v/v) xylene cyanol, 0.25% (v/v) bromophenol blue) and heated at 95 °C for 3 min. Reactions were analysed by 20% denaturing polyacrylamide gel electrophoresis solution of 19 : 1 acrylamide:bis-acrylamide, BioRad and 7 M urea (Sigma Aldrich) in 1 × TBE (Tris-borate EDTA) buffer. Electrophoresis was carried out at 525 V for 75 minutes; gels were subsequently fixed for 60 minutes in a 50% (v/v) methanol, 10% (v/v) acetic acid solution, and dried at 80 °C for two hours under vacuum. Dried gels were exposed to a Kodak Phosphor imager screen and scanned using a Typhoon 9500 instrument (GE Healthcare), scanned images were quantified using ImageJ.
# SNM1B = biological target: T2, SNM1B (Homo sapiens, UniProt Q9H816); test: gel-based nuclease assay, SNM1B; format: biochemical; conditions: 1 nM SNM1B
# T2 construct: for the MBL and β-CASP domains of SNM1B (aa 1–335) into baculoviral expression vectors pFB-CT10HF-LIC; made in house; host or cells: Sf9 insect cells (baculovirus)
# T2 sequence (Q9H816 1-335): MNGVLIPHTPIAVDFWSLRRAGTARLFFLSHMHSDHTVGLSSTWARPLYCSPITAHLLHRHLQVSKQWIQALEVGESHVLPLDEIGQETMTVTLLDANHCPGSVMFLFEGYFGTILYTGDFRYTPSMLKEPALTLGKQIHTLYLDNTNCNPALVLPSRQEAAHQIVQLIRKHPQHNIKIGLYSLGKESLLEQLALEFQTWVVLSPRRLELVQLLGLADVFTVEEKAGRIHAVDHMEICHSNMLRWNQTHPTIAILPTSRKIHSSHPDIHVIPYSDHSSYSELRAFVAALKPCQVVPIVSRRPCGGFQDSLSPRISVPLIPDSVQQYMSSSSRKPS
# Excerpt: as §2, §3
# Suppl. Figure 10. Increasing concentrations (as indicated, in μM) of compounds incubated with 1 nM SNM1B or 2.5 nM SNM1C (room temperature, 10 min), before initiating nuclease reaction by addition of ssDNA (37 °C, 20 min). Products were analysed by 20% denaturing PAGE. Gels are representative versions from a minimum of three independent experimental repeats.
# (1 picture or pasted object on this page, not shown here)
# [3] = tested on: U2OS (osteosarcoma) cells; test: clonogenic survival assay, U2OS cells; format: cell-based, human; conditions: for cell death as single agent: U2OS, 50 μM compound
# Procedure: Clonogenic assays were performed in 10 cm tissue culture dishes (for RPE-1 cells, U2OS cells and derived clones). Cells (1000 per dish) were seeded in complete media (10 mL) and allowed to attach overnight, then treated with cisplatin or cisplatin plus inhibitor for the times stated. Following treatments, cells were allowed to grow and form colonies for 10 days. Colonies formed were stained with Coomassie R250 (Sigma) and counted on a COLCount Colony Counter (Oxford Optronix). All experiments represent the mean (±SEM) of at least three biological repeats of duplicate dishes/flasks for each treatment.
# SNM1C [4] = biological target: T3, SNM1C (Homo sapiens, UniProt Q96SD1); test: real-time fluorescence-based nuclease assay, SNM1C; format: biochemical
# T3 construct: for the MBL and β-CASP domains of SNM1C (aa 1–362) into the baculovirus expression vector pBF-6HZB; made in house; host or cells: Sf9 insect cells (baculovirus)
# Excerpt: There is structural similarity between SNM1A, SNM1B, and SNM1C and major mechanistic features are likely conserved between the three nucleases. We therefore tested (13) and other hydroxamic acid analogues for inhibition of SNM1B and SNM1C. […] Note that the substrate utilised for the high-throughput fluorescence based and subsequent SNM1A and SNM1B assays differed slightly for SNM1C reflecting its (primarily) endonucleolytic, rather than exonucleolytic, activity (ESI Fig. 9 ^†).
# as §1
# SNM1C [5] = biological target: T3, SNM1C; test: gel-based nuclease assay, SNM1C; format: biochemical
# Excerpt: as §2, §3
# Suppl. Figure 10. […] Products were analysed by 20% denaturing PAGE. […]
# [6] = real-time fluorescence-based nuclease assay, resynthesised compounds
# T3 sequence (Q96SD1 1-362): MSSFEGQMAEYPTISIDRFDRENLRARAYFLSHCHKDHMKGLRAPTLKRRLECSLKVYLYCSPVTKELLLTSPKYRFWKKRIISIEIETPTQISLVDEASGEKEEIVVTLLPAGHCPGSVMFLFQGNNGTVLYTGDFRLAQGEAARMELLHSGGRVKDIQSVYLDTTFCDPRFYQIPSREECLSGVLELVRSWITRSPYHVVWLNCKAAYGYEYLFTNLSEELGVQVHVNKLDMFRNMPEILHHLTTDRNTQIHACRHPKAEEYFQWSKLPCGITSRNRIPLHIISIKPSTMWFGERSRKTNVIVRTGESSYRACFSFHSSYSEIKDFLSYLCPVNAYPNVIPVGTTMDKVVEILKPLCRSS
Compound,IC50 (SNM1A [1]; [6]) [µM],also measured
O=c1[nH]c2cnc3ccc(Cl)cc3c2[nH]c1=O [compound 2],2,solubility (solubility): poor solubility
COc1cc2c3c(cccc3c1)C(=O)N(O)C2=O [compound 3],2.9,solubility (solubility): poor solubility
C=CCNc1nc(N[C@@H](CC(C)C)C(=O)OC)c2cc(Cl)ccc2n1 [compound 7],> 1000,
C=CCNc1nc(N[C@@H](CC(C)C)C(N)=O)c2cc(Cl)ccc2n1 [compound 8],> 1000,
C=CCNc1nc(N[C@H](CO)CC(C)C)c2cc(Cl)ccc2n1 [compound 9],> 1000,
C=CCNc1nc(NC(CC(C)C)C(=O)NO)c2cc(Cl)ccc2n1 (stereo not shown) [compound 10],33,increase in SNM1A potency compared to K1 (6) (SNM1A [1]; fluorescence-based assay): 3 fold
C=CCNc1nc(NCC(=O)NO)c2cc(Cl)ccc2n1 [compound 11],17,
C=CCNc1nc(N[C@H](C)C(=O)NO)c2cc(Cl)ccc2n1 [compound 12],2.2,"inhibition of SNM1A in gel-based assay (SNM1A [2]): good inhibition; inhibition of SNM1B in gel-based assay (SNM1B): good inhibition; effect on cisplatin cytotoxicity ([3]; U2OS wild-type, 50 μM compound 20 hours pre-treatment, 0–15 μM cisplatin): potentiation of cisplatin cytotoxicity; cell death as single agent [3]: ≤ 10%"
C=CCNc1nc(N[C@@H](C)C(=O)NO)c2cc(Cl)ccc2n1 [compound 13],0.8,inhibition of SNM1A in gel-based assay (SNM1A [2]): good inhibition; inhibition of SNM1B in gel-based assay (SNM1B): good inhibition; cell death as single agent [3]: ≤ 10%
C=CCNc1nc(NC(CO)C(=O)NO)c2cc(Cl)ccc2n1 (stereo not shown) [compound 14],4.1,
C=CCNC(=O)c1nc(N[C@@H](C)C(=O)NO)c2ccccc2n1 [compound 20],84,inhibition of SNM1A in gel-based assay (SNM1A [2]): good inhibition; inhibition of SNM1B in gel-based assay (SNM1B): good inhibition; decrease in SNM1A potency compared to 13 (SNM1A [1]; fluorescence-based assay): 100 fold
CCOc1nc(N[C@@H](C)C(=O)NO)c2cc(Cl)ccc2n1 [compound 21],67,concentration giving complete inhibition of SNM1C digestion (SNM1C [5]): ~6 µM; inhibition of SNM1C in gel-based assay (SNM1C [5]; 2.5 nM SNM1C): clearly inhibits the nuclease activity of SNM1C
"AZ1353160 [compound 4, reference compound]",,SNM1A IC50 (SNM1A [1]; [6]): an IC50 value could not be calculated

# Second part, led by results:
IC50 (SNM1A [1]; [6]) [µM],Compound,also measured
42,C[C@H](Nc1nc(N2CCOCC2)nc2ccc(Cl)cc12)C(=O)NO [compound 15],
34,C[C@H](Nc1nc(NCc2ccccc2)nc2ccc(Cl)cc12)C(=O)NO [compound 16],IC50 (SNM1C [4]; real-time fluorescence-based nuclease assay): 1.1 µM
20,CCCN(C)c1nc(N[C@@H](C)C(=O)NO)c2cc(Cl)ccc2n1 [compound 17],
> 100,CCN(CC)c1nc(N[C@@H](C)C(=O)NO)c2cc(Cl)ccc2n1 [compound 18],"selectivity among SNM1A, SNM1B, SNM1C (SNM1C [4]; fluorescence-based assays): only potent against SNM1C"
11,C[C@H](Nc1nc(N(C)C)nc2ccc(Cl)cc12)C(=O)NO [compound 22],
13,C[C@H](Nc1nc(N(C)C)nc2ccc(F)cc12)C(=O)NO [compound 23],
74,COc1ccc2nc(N(C)C)nc(N[C@@H](C)C(=O)NO)c2c1 [compound 24],
